{
  "source": "patent US11925632B2",
  "about": "“Isoquinoline derivatives for use in treating GLUT1 deficiency syndrome” (GLIAPHARM SA, priority 2019, dated 2024)",
  "format_in_all_cases": "cell-based",
  "key": {"astrocytes": {"system": "astrocytes", "experiment": "Extracellular medium acidification (SNARF5) assay in astrocytes", "details": "Mus musculus, Astrocyte, 1.5 h; astrocytes in vitro, 90 min stimulation, 10 nM to 30 μM", "experimental": "Secretion of lactate was measured indirectly through the acidification of extracellular medium using extracellular pH sensor SNARE-5F-(AND-6)-CAR (SNARF5) as described below.\nSecretion of lactate was measured indirectly through the acidification of extracellular medium using extracellular pH sensor […] (SNARF5). After washing cells twice with stimulation medium (DMEM (D5030, Sigma), 1 mM […], and 5 mM Glucose, pH 7.4) at 37° C., cells were stimulated with compounds at a final concentration ranging from 10 nM to 30 μM in 50 μl per well of stimulation medium supplemented with 10 μM of SNARF5 (Life Technologies Corporation). Each compound was tested in two different plates for duplicates. After 90 min stimulation, fluorescence was read at exc. (excitation) 480 nm/emm. (emission) 580 nm and at exc 480 nm/emm. 630 nm. The ratio of fluorescence between 630 nm and 580 emission values, which is proportional to extracellular pH, was calculated. In each plate, 8 wells were used for negative controls (DMSO 0.1%) and 8 wells were used for positive controls (CCCP 2 μM in DMSO).\nTable 3 below lists compounds that are active on the extracellular medium acidification (SNARF5) assay in astrocytes in vitro, which indicates their ability to produce lactate. ‘+’ indicates activity of compounds with EC50>5 μM; ‘++’ indicates activity of compounds with EC50<5 μM.\n(§1) Primary cultures of cerebrocortical astrocytes were obtained from 1 to 2-day-old OF1 mouse pups (Charles River). Briefly, cortices were isolated and minced in small pieces under a dissecting microscope. The cells were incubated for 30 min at 37° C. in a solution containing 20 U/ml papain, 1 mM L-cysteine and 10 kU/ml DNase I. After dissociation, papain activity was stopped by the addition of fetal calf serum (FCS). Single-cell suspension was then obtained by mechanical dissociation, which consisted in cells trituration in a DMEM D7777 medium supplemented with 44 mm NaHCO3, 10 ml/L antibiotic/antimycotic solution and 10% FCS. The cells were seeded at an average density of ˜10′000 cells/cm^2 on poly-D-lysine coated 96- or 12-well culture plates, depending on their use, and grown in DMEM D7777 medium supplemented with 44 mm NaHCO3, 10 ml/L antibiotic/antimycotic solution and 10% FCS at 37° C. in a humidified atmosphere containing 5% CO2/95% air. Culture medium was renewed twice a week. Cells were stimulated and harvested between DIV14 and DIV17, when confluence and cell growth were optimal."}, "primary mouse astrocytes": {"system": "primary mouse astrocytes", "experiment": "Extracellular lactate quantification (lactate release from primary astrocytes)", "details": "Astrocyte, 1.5 h; for pEC50: primary mouse astrocytes, 90 min stimulation, read-out: EC50 of astrocyte-mediated lactate secretion; for Emax: Mus musculus, positive control CCCP 2 μM, 90 min, read-out: Maximal effect on lactate secretion compared to the effect of the positive control (100%)", "experimental": "as §1\nSecretion of L-lactate was measured in the extracellular medium of 96-well plated astrocytes after 90 min stimulation (at 37° C., in 5% CO2/95% air conditions) with Vehicle (DMSO), the compounds of the invention (100 nM to 100 μM) or positive control. […] Stimulation medium was composed of D5030 medium complemented with 5 mM D-glucose and 44 mM sodium bicarbonate, pH 7.2. To quantify lactate concentrations in the extracellular medium, 200 μl of a 0.2M Glycine-semicarbazide buffer (pH 10) containing 3 mM NAD and 14 U/ml LDH was added to each well of a 96-well plate containing 30 μl aliquots of extracellular medium. Samples were incubated at 37° C. for 1 h. Fluorescence intensity (340 nm excitation/450 nm emission), which represents the amount of NADH produced, was measured, and lactate concentration values were determined relative to a standard curve of L-lactate concentrations.\nThe release of lactate from primary mouse astrocytes treated with compound (1) at 10 μM was quantified by (FIG. 1). Accumulation of lactate in the extracellular medium was measured over a period of 1.5 h. […] Maximal effects of the compounds were 38.6% (1), 38% (2), 31% (4) and 76% (3) when compared to the effect of the positive control (100%) for compounds (1) to (4), respectively."}, "primary astrocytes": {"system": "primary astrocytes", "experiment": "MTT mitochondrial activity assay", "details": "Mus musculus, Astrocyte, 24 h treatment", "experimental": "as §1\nTo monitor mitochondrial activity in astrocytes, which is linked to the metabolic process of glycolysis and production of lactate, astrocytes in 96-well plates were stimulated for 24 h (37° C. 5% CO2/95% air) with the compounds of the invention ranging from 0.2 to 200 μM.\nAfter stimulation, 5 mg/ml thiazol blue tetrazolium bromide (MTT) in D5030 medium complemented with 5 mM D-glucose and 44 mM sodium bicarbonate (pH 7.2) was added to each well, and cells were incubated for 4 h at 37° C. (5% CO2). The medium was then removed and the amount of reduced MTT, i.e. formazan, solubilized in DMSO (50 μl/well) was determined using a spectrophotometer (absorbance of 570 nm).\nThe mitochondrial activity in primary astrocytes treated with Compounds (1) to (4) at concentrations ranging from 1 nM to 200 μM. After 24 h, mitochondrial activity was monitored in MTT colorimetric assay as described above (FIG. 3)."}},
  "note": "pEC50, pIC50: −log10 of the molar value.",
  "data": [
    {"smiles": "COc1cc2ccnc(Nc3ccc(C)cc3)c2cc1OC", "note": "[Example 6, 6,7-dimethoxy-N-(p-tolyl)isoquinolin-1-amine]", "values": [
      {"measurement": "pEC50", "setting": "astrocytes", "result": "< 5.30"}
    ]},
    {"smiles": "COc1cc2ccnc(Nc3cccc(OC(F)(F)F)c3)c2cc1OC", "note": "[Example 11, 6,7-dimethoxy-N-(3-(trifluoromethoxy)phenyl)isoquinolin-1-amine]", "values": [
      {"measurement": "pEC50", "setting": "astrocytes", "result": "> 5.30"}
    ]},
    {"smiles": "COc1ccc2c(Nc3ccc(OC(F)(F)F)cc3)nccc2c1", "note": "[Example 12, 6-methoxy-N-(4-(trifluoromethoxy)phenyl)isoquinolin-1-amine]", "values": [
      {"measurement": "pEC50", "setting": "astrocytes", "result": "< 5.30"}
    ]},
    {"smiles": "COCCOc1ccc(Nc2nccc3cc(OC)c(OC)cc23)cc1", "note": "[Example 8, 6,7-dimethoxy-N-(4-(2-methoxyethoxy)phenyl)isoquinolin-1-amine]", "values": [
      {"measurement": "pEC50", "setting": "astrocytes", "result": "< 5.30"}
    ]},
    {"smiles": "COc1cc2ccnc(Nc3ccc(SC)cc3)c2cc1OC", "note": "[Example 18, 6,7-dimethoxy-N-(4-(methylthio)phenyl)isoquinolin-1-amine]", "values": [
      {"measurement": "pEC50", "setting": "astrocytes", "result": "< 5.30"}
    ]},
    {"smiles": "COc1ccc2c(Nc3ccc(OC(F)(F)F)cc3)nccc2c1C", "note": "[Example 21, 6-methoxy-5-methyl-N-(4-(trifluoromethoxy)phenyl)isoquinolin-1-amine]", "values": [
      {"measurement": "pEC50", "setting": "astrocytes", "result": "> 5.30"}
    ]},
    {"smiles": "COc1cc2ccnc(Nc3ccc(C(F)(F)F)cc3)c2cc1OC", "note": "[Example 2, 6,7-dimethoxy-N-(4-(trifluoromethyl)phenyl)isoquinolin-1-amine]", "values": [
      {"measurement": "pEC50", "setting": "astrocytes", "result": "< 5.30"},
      {"measurement": "pEC50", "setting": "primary mouse astrocytes", "result": 5.00},
      {"measurement": "Emax", "setting": "primary mouse astrocytes", "result": 38, "unit": "%"},
      {"measurement": "pIC50", "setting": "primary astrocytes", "result": 4.37}
    ]},
    {"smiles": "COC(=O)c1ccc2c(Nc3ccc(OC(F)(F)F)cc3)nccc2c1", "note": "[Example 29, methyl 1-((4-(trifluoromethoxy)phenyl)amino)isoquinoline-6-carboxylate]", "values": [
      {"measurement": "pEC50", "setting": "astrocytes", "result": "> 5.30"}
    ]},
    {"smiles": "COc1cc2ccnc(Nc3ccc(OC(F)(F)F)c(F)c3)c2cc1OC", "note": "[Example 14, N-(3-fluoro-4-(trifluoromethoxy)phenyl)-6,7-dimethoxyisoquinolin-1-amine]", "values": [
      {"measurement": "pEC50", "setting": "astrocytes", "result": "< 5.30"}
    ]},
    {"smiles": "COc1ccc2c(Nc3ccc(OC(F)(F)F)cc3)ncc(C)c2c1", "note": "[Example 24, 6-methoxy-4-methyl-N-(4-(trifluoromethoxy)phenyl)isoquinolin-1-amine]", "values": [
      {"measurement": "pEC50", "setting": "astrocytes", "result": "< 5.30"}
    ]},
    {"smiles": "COc1ccc(Nc2nccc3cc(OC)c(OC)cc23)cc1OC", "note": "[Example 5, N-(3,4-dimethoxyphenyl)-6,7-dimethoxyisoquinolin-1-amine]", "values": [
      {"measurement": "pEC50", "setting": "astrocytes", "result": "< 5.30"}
    ]},
    {"smiles": "COCCc1ccc(Nc2nccc3cc(OC)c(OC)cc23)cc1", "note": "[Example 20, 6,7-dimethoxy-N-(4-(2-methoxyethyl)phenyl)isoquinolin-1-amine]", "values": [
      {"measurement": "pEC50", "setting": "astrocytes", "result": "> 5.30"}
    ]},
    {"smiles": "COc1cc2ccnc(Nc3ccc(C#N)cc3C(F)(F)F)c2cc1OC", "note": "[Example 17, 4-((6,7-dimethoxyisoquinolin-1-yl)amino)-3-(trifluoromethyl)benzo-nitrite]", "values": [
      {"measurement": "pEC50", "setting": "astrocytes", "result": "< 5.30"}
    ]},
    {"smiles": "COc1ccc(Nc2nccc3cc(OC)c(OC)cc23)cc1", "note": "[Example 7, 6,7-dimethoxy-N-(4-methoxyphenyl)isoquinolin-1-amine]", "values": [
      {"measurement": "pEC50", "setting": "astrocytes", "result": "< 5.30"}
    ]},
    {"smiles": "COc1cc2ccnc(Cc3ccc(OC(F)(F)F)cc3)c2cc1OC", "note": "[Example 4, 6,7-dimethoxy-1-(4-(trifluoromethoxy)benzyl)isoquinoline]", "values": [
      {"measurement": "pEC50", "setting": "astrocytes", "result": "< 5.30"},
      {"measurement": "pEC50", "setting": "primary mouse astrocytes", "result": 4.98},
      {"measurement": "Emax", "setting": "primary mouse astrocytes", "result": 31, "unit": "%"},
      {"measurement": "pIC50", "setting": "primary astrocytes", "result": 5.26}
    ]},
    {"smiles": "COc1ccc2c(Nc3ccc(OC(F)(F)F)cc3)ncc(Br)c2c1", "note": "[Example 25, 4-bromo-6-methoxy-N-(4-(trifluoromethoxy)phenyl)isoquinolin-1-amine]", "values": [
      {"measurement": "pEC50", "setting": "astrocytes", "result": "< 5.30"}
    ]},
    {"smiles": "COc1cc2ccnc(Nc3ccc(OC(F)(F)F)cc3F)c2cc1OC", "note": "[Example 10, N-(2-fluoro-4-(trifluoromethoxy)phenyl)-6,7-dimethoxyisoquinolin-1-amine]", "values": [
      {"measurement": "pEC50", "setting": "astrocytes", "result": "< 5.30"}
    ]},
    {"smiles": "COc1cc2ccnc(Nc3cccc(OC(F)F)c3)c2cc1OC", "note": "[Example 16, N-(3-(difluoromethoxy)phenyl)-6,7-dimethoxyisoquinolin-1-amine]", "values": [
      {"measurement": "pEC50", "setting": "astrocytes", "result": "> 5.30"}
    ]},
    {"smiles": "FC(F)(F)Oc1ccc(Nc2nccc3ccccc23)cc1", "note": "[Example 3, N-(4-(trifluoromethoxy)phenyl)isoquinolin-1-amine]", "values": [
      {"measurement": "pEC50", "setting": "astrocytes", "result": "< 5.30"},
      {"measurement": "pEC50", "setting": "primary mouse astrocytes", "result": 4.96},
      {"measurement": "Emax", "setting": "primary mouse astrocytes", "result": 76, "unit": "%"},
      {"measurement": "pIC50", "setting": "primary astrocytes", "result": 4.58}
    ]},
    {"smiles": "COCc1ccc(Nc2nccc3cc(OC)c(OC)cc23)cc1", "note": "[Example 9, 6,7-dimethoxy-N-(4-(methoxymethyl)phenyl)isoquinolin-1-amine]", "values": [
      {"measurement": "pEC50", "setting": "astrocytes", "result": "< 5.30"}
    ]},
    {"smiles": "CCc1ccc2c(Nc3ccc(OC(F)(F)F)cc3)nccc2c1", "note": "[Example 30, 6-ethyl-N-(4-(trifluoromethoxy)phenyl)isoquinolin-1-amine]", "values": [
      {"measurement": "pEC50", "setting": "astrocytes", "result": "> 5.30"}
    ]},
    {"smiles": "CN(C)c1ccc2c(Nc3ccc(OC(F)(F)F)cc3)nccc2c1", "note": "[Example 27, N^6,N^6-dimethyl-N^1-(4-(trifluoromethoxy)phenyl)isoquinoline-1,6-diamine]", "values": [
      {"measurement": "pEC50", "setting": "astrocytes", "result": "> 5.30"}
    ]},
    {"smiles": "COc1cc2ccnc(Nc3cccc(N(C)C)c3)c2cc1OC", "note": "[Example 15, N^1-(6,7-dimethoxyisoquinolin-1-yl)-N^3,N^3-dimethylbenzene-1,3-diamine]", "values": [
      {"measurement": "pEC50", "setting": "astrocytes", "result": "< 5.30"}
    ]},
    {"smiles": "FC(F)(F)Oc1ccc(Nc2nccc3cc(Cl)ccc23)cc1", "note": "[Example 13, 6-chloro-N-(4-(trifluoromethoxy)phenyl)isoquinolin-1-amine]", "values": [
      {"measurement": "pEC50", "setting": "astrocytes", "result": "< 5.30"}
    ]},
    {"smiles": "COc1cc2ccnc(Nc3ccc(OC(F)(F)F)c(Cl)c3)c2cc1OC", "note": "[Example 19, N-(3-chloro-4-(trifluoromethoxy)phenyl)-6,7-dimethoxyisoquinolin-1-amine]", "values": [
      {"measurement": "pEC50", "setting": "astrocytes", "result": "> 5.30"}
    ]}
  ]
}
